Measurements from PubChem BioAssay AID248 (DTP/NCI, 2004).
Values joined by “and” are separate entries in the source; they are usually repeats but may differ in a detail not shown here. Identical values can stand only once. Inconclusive results and toxic doses are left out. No stated cut-off is given here; in the data, active means T/C of 150% or more; inactive means T/C below 125%.

Test system: L1210 leukemia ip in BDF1 mice, survival T/C
Experiment: NCI In Vivo Anticancer Drug Screen. Data for tumor model L1210 Leukemia (intraperitoneal) in B6D2F1 (BDF1) mice
Settings: endpoint: mean survival time, higher = longer survival
Summary of the method: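 Mice bearing the transplanted tumor received compound or vehicle. Survival of the treated group was divided by that of the vehicle-treated control group to give the ratio.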

[1] = dose: 100.0 mg/kg/injection, schedule: Q01DX001 (ip), vehicle: saline
[2] = dose: 200.0 mg/kg/injection, schedule: Q01DX001 (ip), vehicle: saline
[3] = dose: 400.0 mg/kg/injection, schedule: Q01DX001 (ip), vehicle: saline
[4] = dose: 6.25 mg/kg/injection, schedule: Q01DX009 (ip), vehicle: saline with Tween-80
[5] = dose: 12.5 mg/kg/injection, schedule: Q01DX009 (ip), vehicle: saline with Tween-80
[6] = dose: 100.0 mg/kg/injection, schedule: Q01DX009 (ip), vehicle: Klucel (hydroxypropylcellulose) (HPC)
[7] = dose: 200.0 mg/kg/injection, schedule: Q01DX009 (ip), vehicle: Klucel (hydroxypropylcellulose) (HPC)
[8] = dose: 400.0 mg/kg/injection, schedule: Q01DX009 (ip), vehicle: Klucel (hydroxypropylcellulose) (HPC)
[9] = dose: 100.0 mg/kg/injection, schedule: Q01DX001 (ip), vehicle: Klucel (hydroxypropylcellulose) (HPC)
[10] = dose: 100.0 mg/kg/injection, schedule: Q04DX003 (ip), vehicle: Klucel (hydroxypropylcellulose) (HPC)
[11] = dose: 200.0 mg/kg/injection, schedule: Q01DX001 (ip), vehicle: Klucel (hydroxypropylcellulose) (HPC)
[12] = dose: 200.0 mg/kg/injection, schedule: Q04DX003 (ip), vehicle: Klucel (hydroxypropylcellulose) (HPC)
[13] = dose: 400.0 mg/kg/injection, schedule: Q01DX001 (ip), vehicle: Klucel (hydroxypropylcellulose) (HPC)
[14] = dose: 400.0 mg/kg/injection, schedule: Q04DX003 (ip), vehicle: Klucel (hydroxypropylcellulose) (HPC)
[15] = dose: 100.0 mg/kg/injection, schedule: Q01DX001 (ip), vehicle: carboxymethylcellulose (CMC)

Measured: T/C

O=C(O)CCC(=O)c1ccc2ccc3cccc4ccc1c2c34
inactive: [1] 98 % of control | [2] 102 % of control | [3] 103 % of control

BrCc1cccc2cccnc12
inactive: dose: 1.56 mg/kg/injection, schedule: Q01DX009 (ip), vehicle: saline with Tween-80 93 % of control | dose: 3.13 mg/kg/injection, schedule: Q01DX009 (ip), vehicle: saline with Tween-80 96 % of control | [4] 91 % of control | [5] 91 % of control

NC(=S)N/N=C/c1cc(Br)c(O)c(Br)c1
inactive: [6] 104 % of control | [7] 91 % of control | [8] 98 % of control

COc1ccc(C2ON2C2CCCCC2)cc1OC (stereo not given)
inactive: [2] 106 % of control | [3] 100 % of control

CN(C)C/C=C/COC(=O)C(C)(C)C
inactive: dose: 75.0 mg/kg/injection, schedule: Q01DX001 (ip), vehicle: saline 93 % of control | dose: 150.0 mg/kg/injection, schedule: Q01DX001 (ip), vehicle: saline 97 % of control | dose: 300.0 mg/kg/injection, schedule: Q01DX001 (ip), vehicle: saline 87 % of control

CCOC(=O)C1(CCCBr)CCCCC1=O (stereo not given)
inactive: dose: 100.0 mg/kg/injection, schedule: Q01DX001 (ip), vehicle: saline with Tween-80 107 % of control | dose: 200.0 mg/kg/injection, schedule: Q01DX001 (ip), vehicle: saline with Tween-80 102 % of control | dose: 400.0 mg/kg/injection, schedule: Q01DX001 (ip), vehicle: saline with Tween-80 104 % of control

COC(=O)C1OC(n2cnc3c(N)ncnc32)C(O)C1O (stereo not given)
inactive: dose: 100.0 mg/kg/injection, schedule: Q01DX005 (ip), vehicle: saline 101 % of control | dose: 200.0 mg/kg/injection, schedule: Q01DX005 (ip), vehicle: saline 101 % of control

O=S1(=O)CC(c2ccc(Cl)cc2)Nc2ccccc21 (stereo not given)
inactive: [9] 87 % of control | [6] 90 % of control | [10] 103 % of control | [11] 93 % of control | [7] 90 % of control | [12] 100 % of control | [13] 93 % of control | [8] 93 % of control | [14] 92 % of control

CC1COCC(C)N1CC(=O)Nc1ccc(S(=O)(=O)c2ccc(NC(=O)CN3C(C)COCC3C)cc2)cc1 (stereo not given)
inactive: [15] 107 % of control | dose: 200.0 mg/kg/injection, schedule: Q01DX001 (ip), vehicle: carboxymethylcellulose (CMC) 95 % of control | dose: 400.0 mg/kg/injection, schedule: Q01DX001 (ip), vehicle: carboxymethylcellulose (CMC) 95 % of control

CN(C)S(=O)(=O)c1ccc(CCc2ccc(S(=O)(=O)N(C)C)cc2)cc1
inactive: dose: 50.0 mg/kg/injection, schedule: Q01DX001 (ip), vehicle: saline 93 % of control | [1] 91 % of control | [2] 91 % of control | [3] 96 % of control

CC(C)(C)OC(=O)C1(C(=O)OC(C)(C)C)C2CCCCC21 (stereo not given)
inactive: [9] 95 % of control | [10] 101 % of control | [11] 90 % of control | [12] 101 % of control | [13] 87 % of control | [14] 96 % of control

O=C(O)c1ccccc1C(=O)NC(Cc1cnc[nH]1)C(=O)O (stereo not given)
inactive: dose: 100.0 mg/kg/injection, schedule: Q01DX009 (ip), vehicle: saline with Tween-80 96 % of control | dose: 100.0 mg/kg/injection, schedule: Q04DX003 (ip), vehicle: saline with Tween-80 102 % of control | dose: 200.0 mg/kg/injection, schedule: Q01DX009 (ip), vehicle: saline with Tween-80 100 % of control | dose: 200.0 mg/kg/injection, schedule: Q04DX003 (ip), vehicle: saline with Tween-80 102 % of control | dose: 400.0 mg/kg/injection, schedule: Q01DX009 (ip), vehicle: saline with Tween-80 94 % of control | dose: 400.0 mg/kg/injection, schedule: Q04DX003 (ip), vehicle: saline with Tween-80 91 % of control

C[C@]12C(=O)OC(=O)[C@H]1[C@H]1CC[C@@H]2C1
inactive: [1] 110 % of control | dose: 100.0 mg/kg/injection, schedule: Q01DX009 (ip), vehicle: acetone 102 % of control | dose: 100.0 mg/kg/injection, schedule: Q04DX003 (ip), vehicle: acetone 104 % of control | [2] 106 % of control | dose: 200.0 mg/kg/injection, schedule: Q01DX009 (ip), vehicle: acetone 89 % of control | dose: 200.0 mg/kg/injection, schedule: Q04DX003 (ip), vehicle: acetone 101 % of control | [3] 111 % of control | dose: 400.0 mg/kg/injection, schedule: Q04DX003 (ip), vehicle: acetone 104 % of control

COc1ccc([N+](=O)[O-])cc1NC(=O)Nc1cc(C)on1
inactive: [9] 91 % of control | [6] 96 % of control and 87 % of control | dose: 100.0 mg/kg/injection, schedule: Q04DX002 (ip), vehicle: Klucel (hydroxypropylcellulose) (HPC) 103 % of control and 91 % of control | [10] 92 % of control | [11] 95 % of control | [7] 98 % of control and 91 % of control | dose: 200.0 mg/kg/injection, schedule: Q04DX002 (ip), vehicle: Klucel (hydroxypropylcellulose) (HPC) 97 % of control and 91 % of control | [12] 89 % of control | [13] 86 % of control | [8] 95 % of control and 98 % of control | dose: 400.0 mg/kg/injection, schedule: Q04DX002 (ip), vehicle: Klucel (hydroxypropylcellulose) (HPC) 97 % of control | [14] 96 % of control

N=C([Se])c1c(N)ncn1C1OC(CO)C(O)C1O (stereo not given)
inactive: dose: 12.5 mg/kg/injection, schedule: Q01DX005 (ip), vehicle: saline 98 % of control | dose: 25.0 mg/kg/injection, schedule: Q01DX005 (ip), vehicle: saline 94 % of control | dose: 50.0 mg/kg/injection, schedule: Q01DX005 (ip), vehicle: saline 96 % of control

S=C(S)N1CCOCC1.[Cu+2]
inactive: dose: 50.0 mg/kg/injection, schedule: Q01DX001 (ip), vehicle: carboxymethylcellulose (CMC) 88 % of control | [15] 107 % of control

CCOC(=O)C(=O)O
inactive: dose: 25.0 mg/kg/injection, schedule: Q01DX009 (ip), vehicle: saline 96 % of control | dose: 50.0 mg/kg/injection, schedule: Q01DX009 (ip), vehicle: saline 103 % of control | dose: 100.0 mg/kg/injection, schedule: Q01DX009 (ip), vehicle: saline 96 % of control | dose: 100.0 mg/kg/injection, schedule: Q04DX002 (ip), vehicle: saline 106 % of control | dose: 200.0 mg/kg/injection, schedule: Q04DX002 (ip), vehicle: saline 109 % of control | dose: 400.0 mg/kg/injection, schedule: Q04DX002 (ip), vehicle: saline 97 % of control

CC1(C)CC(Cc2ccccc2)C(=O)O1 (stereo not given)
inactive: [10] 93 % of control | [12] 90 % of control | [14] 100 % of control

CCOC(=O)C(OCc1ccccc1)(C(=O)Cl)C(C)C (stereo not given)
inactive: [4] 98 % of control | dose: 6.25 mg/kg/injection, schedule: Q04DX003 (ip), vehicle: saline 93 % of control | [5] 100 % of control | dose: 12.5 mg/kg/injection, schedule: Q04DX003 (ip), vehicle: saline 97 % of control | dose: 25.0 mg/kg/injection, schedule: Q01DX009 (ip), vehicle: saline with Tween-80 98 % of control | dose: 25.0 mg/kg/injection, schedule: Q04DX003 (ip), vehicle: saline 92 % of control | dose: 50.0 mg/kg/injection, schedule: Q04DX003 (ip), vehicle: saline 103 % of control

CC(=O)Nc1cccc(OC(=O)Nc2ccccc2F)c1
inactive: [6] 91 % of control | [7] 101 % of control | [8] 112 % of control

CC(C)n1cnc2c(=S)nc[nH]c21
inactive: dose: 3.12 mg/kg/injection, schedule: Q01DX Z (ip), vehicle: carboxymethylcellulose (CMC) 106 % of control | dose: 7.25 mg/kg/injection, schedule: Q01DX Z (ip), vehicle: carboxymethylcellulose (CMC) 103 % of control | dose: 7.25 mg/kg/injection, schedule: Q01DX Z (oral), vehicle: carboxymethylcellulose (CMC) 110 % of control | dose: 14.5 mg/kg/injection, schedule: Q01DX Z (ip), vehicle: carboxymethylcellulose (CMC) 110 % of control | dose: 14.5 mg/kg/injection, schedule: Q01DX Z (oral), vehicle: carboxymethylcellulose (CMC) 118 % of control | dose: 29.0 mg/kg/injection, schedule: Q01DX Z (ip), vehicle: carboxymethylcellulose (CMC) 116 % of control | dose: 210.0 mg/kg/injection, schedule: Q01DX Z (ip), vehicle: carboxymethylcellulose (CMC) 90 % of control
active: dose: 58.0 mg/kg/injection, schedule: Q01DX Z (oral), vehicle: carboxymethylcellulose (CMC) 152 % of control
